One assay addresses JMJD2C (Homo sapiens (Human), UniProt Q9H3R0). Put plainly: JMJD2C in vitro enzyme inhibition assay (TR-FRET). The class given is biochemical. The conditions noted are these: 0.3 nM JMJD2C, 300 nM H3K9me3-biotin peptide, 2 μM alpha-ketoglutaric acid, 30 minutes. How it is done:
This assay determines the ability of a test compound to inhibit JMJD2C demethylase activity. Baculovirus expressed JMJD2C (GenBank Accession #BC143571, AA 2-372) was purchased from BPS Bioscience (Cat#50105).
The ability of test compounds to inhibit the activity of JMJD2C was determined in 384-well plate format under the following reaction conditions: 0.3 nM JMJD2C, 300 nM H3K9me3-biotin labeled peptide (Anaspec cat #64360), 2 μM alpha-ketoglutaric acid in assay buffer of 50 mM HEPES, pH7.3, 0.005% Brij35, 0.5 mM TCEP, 0.2 mg/ml BSA, 50 μM sodium L-ascorbate, and 2 μM ammonium iron(II) sulfate. Reaction product was determined quantitatively by TR-FRET after the addition of detection reagent Phycolink Streptavidin-allophycocyanin (Prozyme) and Europium-anti-di-methylated histone H3 lysine 9 (H3K9me2) antibody (PerkinElmer) in the presence of 5 mM EDTA in LANCE detection buffer (PerkinElmer) at a final concentration of 50 nM and 1 nM, respectively.
The assay reaction was initiated by the following: 2 μl of the mixture of 900 nM H3K9me3-biotin labeled peptide and 6 μM alpha-ketoglutaric acid with 2 μl of 11-point serial diluted inhibitor in 3% DMSO were added to each well of the plate, followed by the addition of 2 μl of 0.9 nM JMJD2C to initiate the reaction. The reaction mixture was incubated at room temperature for 30 minutes, and terminated by the addition of 6 μl of 5 mM EDTA in LANCE detection buffer containing 100 nM Phycolink Streptavidin-allophycocyanin and 2 nM Europium-anti-H3K9me2 antibody. Plates were read by EnVisionMultilabel Reader in TR-FRET mode (excitation at 320 nm, emission at 615 nm and 665 nm) after 1 hour incubation at room temperature. A ratio was calculated (665/615) for each well and fitted to determine inhibition constant (IC50).
The ability of the compounds disclosed herein to inhibit demethylase activity was quantified and the respective IC50 value was determined. Table 3 provides the IC50 values of various compounds disclosed herein.
In general terms: TR-FRET usually uses a lanthanide donor and a delayed reading to cut background.

The subject of assay [1] is KYSE-150 esophageal carcinoma cell line. Nature of the assay: In vitro cell-based assay: BrdU incorporation cell proliferation ELISA. On the set-up: species or system human. The conditions noted are these: Homo sapiens, KYSE-150 cells, 168 hours compound incubation, read-out: Cellular IC50. How it is done:
Cell lines tested include the JMJD2C gene amplified cell line KYSE-150. This is a quantitative ELISA assay measuring DNA incorporation of BrdU during S-phase as a direct readout of cellular proliferation.
Assay Principle: This is a colorimetric immunoassay for the quantification of cell proliferation. Cells treated for 168 hours with test compounds are assayed for their ability to go through S-phase as a measure of their proliferative potential.
Assay Method: The human KYSE-150 (SMAD4 mut, TP53 mut) esophageal carcinoma cell line was seeded at 2,000 cells/well on a 96-well tissue culture treated plate. After an overnight incubation, cells were treated with compound in an 11-point dilution series with final concentrations ranging from 100 μM to 2 nM. Cells were then incubated in the presence of compound for 168 hours. After compound incubation the cells were assayed using a BrdU Cell Proliferation ELISA (Roche). The cells were first incubated with BrdU labeling reagent for 2 hours. After 2 hours, the BrdU incorporated cells were fixed and denatured, probed with an anti-BrdU-Peroxidase antibody for 1.5 hours and washed. Finally, a tetramethylbenzidine peroxidase substrate was added to each well for 15 minutes followed by a H2SO4 stop solution. The plate was read at 450 nm, and the raw optical density data was transferred into XLFit (IDBS) for IC50 calculation using the formula: fit=(D+((Vmax*(x^n))/((x^n)+(Km^n))))
Table 4 provides the cellular IC50 values of various compounds disclosed herein.
On the technique in general: Uptake of a labelled nucleoside into DNA is a usual measure of proliferation.

JMJD2C, sequence (Q9H3R0 2-372): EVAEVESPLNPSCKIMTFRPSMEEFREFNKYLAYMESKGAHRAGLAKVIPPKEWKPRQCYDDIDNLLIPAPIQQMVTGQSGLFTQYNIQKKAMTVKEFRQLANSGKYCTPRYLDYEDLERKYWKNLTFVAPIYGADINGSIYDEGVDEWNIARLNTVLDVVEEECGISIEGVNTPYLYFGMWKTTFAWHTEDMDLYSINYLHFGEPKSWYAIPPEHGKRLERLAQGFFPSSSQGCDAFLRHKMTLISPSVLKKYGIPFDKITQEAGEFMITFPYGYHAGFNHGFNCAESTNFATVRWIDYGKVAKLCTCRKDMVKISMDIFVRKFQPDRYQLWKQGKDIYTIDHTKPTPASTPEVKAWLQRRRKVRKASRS

For orientation: IC50 means the midpoint of a concentration-inhibition curve. As to `CC(C)c1ccc(N(C)c2ccc(Oc3nc(O)c4ccncc4n3)cc2)cn1` [Example 109, 2-[4-[methyl-(6-propan-2-ylpyridin-3-yl)amino]phenoxy]pyrido[3,4-d]pyrimidin-4-ol], the values for the IC50 (against JMJD2C; in assay [1]) were 0.1 to 1 µM and 1 to 10 µM, respectively.

`CN(CC1CCc2ccccc21)c1ccc(Oc2nc(O)c3ccncc3n2)cc1` (stereo not shown) [Example 62, 2-[4-[2,3-dihydro-1H-inden-1-ylmethyl(methyl)amino]phenoxy]pyrido[3,4-d]pyrimidin-4-ol]: the IC50 against JMJD2C lay in the range of 0.1 to 1 µM; in assay [1], 1 to 10 µM.

Regarding `Cc1ccc(N(C)c2ccc(Oc3nc(O)c4ccncc4n3)cc2)cc1F` [Example 53, 2-[4-(3-fluoro-N,4-dimethylanilino)phenoxy]pyrido[3,4-d]pyrimidin-4-ol], the IC50 (at JMJD2C; in assay [1]) was 0.1 to 1 µM each time.

As for `CC(CN)c1ccc(N(C)c2ccc(Oc3nc(O)c4ccncc4n3)cc2)cc1` (stereo not shown) [Example 37, 2-(4-{[4-(2-amino-1-methyl-ethyl)-phenyl]-methyl-amino}-phenoxy)-pyrido[3,4-d]pyrimidin-4-ol], the IC50 was at most 0.1 µM against JMJD2C and above 10 µM in assay [1].

For the compound `CN(c1ccc(Oc2nc(O)c3ccncc3n2)cc1)c1cccc(N2CCC(N)CC2)c1` [Example 50, 2-[4-[3-(4-aminopiperidin-1-yl)-N-methylanilino]phenoxy]pyrido[3,4-d]pyrimidin-4-ol], the IC50 on JMJD2C is at most 0.1 µM; in assay [1], above 10 µM.

For the compound `CN(c1ccccc1)c1cccc(Oc2nc(O)c3ccncc3n2)c1` [Example 7, 2-[3-(Methyl-phenyl-amino)-phenoxy]-pyrido[3,4-d]pyrimidin-4-ol], the IC50 (against JMJD2C; in assay [1]) was 1 to 10 µM each time.

As to `CN(C)c1ccc(N(C)c2ccc(Oc3nc(O)c4ccncc4n3)cc2)cc1` [Example 44, 2-[4-[4-(dimethylamino)-N-methylanilino]phenoxy]pyrido[3,4-d]pyrimidin-4-ol], the IC50 is at most 0.1 µM on JMJD2C and above 10 µM in assay [1].

In the case of `CC(C)c1ccc(N(C)c2ccc(Oc3nc(O)c4ccncc4n3)cc2)cc1` [Example 85, 2-[4-(N-methyl-4-propan-2-ylanilino)phenoxy]pyrido[3,4-d]pyrimidin-4-ol], the half-maximal inhibitory concentration (IC50) is 1 to 10 µM against JMJD2C and at most 0.1 µM in assay [1].

As to `Oc1nc(Oc2ccc3c(ccn3C3CCNCC3)c2)nc2cnccc12` [Example 104, 2-(1-piperidin-4-ylindol-5-yl)oxypyrido[3,4-d]pyrimidin-4-ol], the IC50 against JMJD2C is at most 0.1 µM; in assay [1], above 10 µM.

With `CN(c1ccc(Oc2nc(O)c3ccncc3n2)cc1)c1ccc(C(C)(C)CO)cc1` [Example 68, 2-[4-[4-(1-hydroxy-2-methylpropan-2-yl)-N-methylanilino]phenoxy]pyrido[3,4-d]pyrimidin-4-ol], the half-maximal inhibitory concentration (IC50) (at JMJD2C; in assay [1]) was 0.1 to 1 µM throughout.

As to `Oc1nc(Oc2ccc3c(ccn3CCc3ccccc3)c2)nc2cnccc12` [Example 3, 2-(1-Phenethyl-1H-indol-5-yloxy)-pyrido[3,4-d]pyrimidin-4-ol], the IC50 (against JMJD2C; in assay [1]) was 0.1 to 1 µM throughout.

Regarding `Cc1ccc(N(C)c2ccc(Oc3nc(O)c4ccncc4n3)cc2)cc1C` [Example 83, 2-[4-(N,3,4-trimethylanilino)phenoxy]pyrido[3,4-d]pyrimidin-4-ol], the IC50 on JMJD2C lay in the range of 1 to 10 µM; in assay [1], 0.1 to 1 µM.

As to `CN1CCC(N(C)c2cccc(N(C)c3ccc(Oc4nc(O)c5ccncc5n4)cc3)c2)CC1` [Example 89, 2-[4-[N-methyl-3-[methyl-(1-methylpiperidin-4-yl)amino]anilino]phenoxy]pyrido[3,4-d]pyrimidin-4-ol], the results for the IC50 (against JMJD2C; in assay [1]) were at most 0.1 µM and 1 to 10 µM, respectively.

In the case of `CC(C)COc1ccc(N(C)c2ccc(Oc3nc(O)c4ccncc4n3)cc2)cc1` [Example 74, 2-[4-[N-methyl-4-(2-methylpropoxy)anilino]phenoxy]pyrido[3,4-d]pyrimidin-4-ol], the IC50 against JMJD2C was 1 to 10 µM; in assay [1], at most 0.1 µM.

The record behind these values is patent publication US10112940B2, “Histone demethylase inhibitors” (Celgene Quanticel Research, Inc., priority 2014, dated 2018).
